Each block holds one molecule with its values, some of them ahead of it.
Experiments:
Assay type in all cases: cell-based
human TLR7 = biological target: T1, human TLR7 (Homo sapiens, UniProt Q9NYK1); assay: TLR7 inhibition reporter assay (HEK-Blue cells, SEAP reporter, gardiquimod stimulation); details: HEK-Blue cells overexpressing human TLR7, SEAP reporter, gardiquimod 7.5 μM; read-out: TLR7 IC50
T1 construct: host or cells: HEK-Blue cells
T1 sequence (Q9NYK1 27-1049): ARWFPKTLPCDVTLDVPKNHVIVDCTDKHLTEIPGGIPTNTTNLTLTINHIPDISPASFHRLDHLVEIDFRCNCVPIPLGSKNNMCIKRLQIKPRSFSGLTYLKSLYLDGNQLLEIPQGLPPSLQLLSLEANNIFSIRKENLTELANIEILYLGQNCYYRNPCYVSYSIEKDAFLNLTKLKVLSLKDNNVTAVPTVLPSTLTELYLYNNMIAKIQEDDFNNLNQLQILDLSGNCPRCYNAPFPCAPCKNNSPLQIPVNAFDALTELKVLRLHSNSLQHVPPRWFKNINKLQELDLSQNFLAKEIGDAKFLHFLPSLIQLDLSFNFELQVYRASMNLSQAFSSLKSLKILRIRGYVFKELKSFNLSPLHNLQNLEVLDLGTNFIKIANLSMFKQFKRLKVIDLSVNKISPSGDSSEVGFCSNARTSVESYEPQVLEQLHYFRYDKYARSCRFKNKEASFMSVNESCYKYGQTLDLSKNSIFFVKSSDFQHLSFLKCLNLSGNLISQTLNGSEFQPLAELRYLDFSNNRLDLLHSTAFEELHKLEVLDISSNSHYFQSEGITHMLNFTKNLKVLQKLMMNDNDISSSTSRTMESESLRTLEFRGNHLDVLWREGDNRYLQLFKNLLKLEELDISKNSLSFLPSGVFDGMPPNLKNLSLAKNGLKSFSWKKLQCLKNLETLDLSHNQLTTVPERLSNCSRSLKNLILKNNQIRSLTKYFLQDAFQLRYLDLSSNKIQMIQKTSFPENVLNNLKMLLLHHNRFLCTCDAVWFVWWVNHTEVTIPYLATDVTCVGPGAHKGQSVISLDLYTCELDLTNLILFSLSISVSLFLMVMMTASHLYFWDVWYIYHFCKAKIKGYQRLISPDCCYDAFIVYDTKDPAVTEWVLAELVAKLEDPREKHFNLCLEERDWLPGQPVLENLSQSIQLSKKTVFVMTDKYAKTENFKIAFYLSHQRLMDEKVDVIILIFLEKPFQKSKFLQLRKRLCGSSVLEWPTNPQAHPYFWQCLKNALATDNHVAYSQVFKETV
Procedure, shortened: (§1)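 Compound treatment: 30 min, RT, 0.05 nM–50 μM final. Agonist: TLR7 gardiquimod 7.5 μM; TLR8 R848 15.9 μM; TLR9 ODN2006 5 nM. Incubation 22 h, 37 °C, 5% CO2. Readout SEAP, HEK-Blue Detection.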

human TLR8 = biological target: T2, human TLR8 (Homo sapiens, UniProt Q9NR97); assay: TLR8 inhibition reporter assay (HEK-Blue cells, SEAP reporter, R848 stimulation); details: HEK-Blue cells overexpressing human TLR8, SEAP reporter, R848 15.9 μM; read-out: TLR8 IC50
T2 construct: host or cells: HEK-Blue cells
T2 sequence (Q9NR97 27-1041): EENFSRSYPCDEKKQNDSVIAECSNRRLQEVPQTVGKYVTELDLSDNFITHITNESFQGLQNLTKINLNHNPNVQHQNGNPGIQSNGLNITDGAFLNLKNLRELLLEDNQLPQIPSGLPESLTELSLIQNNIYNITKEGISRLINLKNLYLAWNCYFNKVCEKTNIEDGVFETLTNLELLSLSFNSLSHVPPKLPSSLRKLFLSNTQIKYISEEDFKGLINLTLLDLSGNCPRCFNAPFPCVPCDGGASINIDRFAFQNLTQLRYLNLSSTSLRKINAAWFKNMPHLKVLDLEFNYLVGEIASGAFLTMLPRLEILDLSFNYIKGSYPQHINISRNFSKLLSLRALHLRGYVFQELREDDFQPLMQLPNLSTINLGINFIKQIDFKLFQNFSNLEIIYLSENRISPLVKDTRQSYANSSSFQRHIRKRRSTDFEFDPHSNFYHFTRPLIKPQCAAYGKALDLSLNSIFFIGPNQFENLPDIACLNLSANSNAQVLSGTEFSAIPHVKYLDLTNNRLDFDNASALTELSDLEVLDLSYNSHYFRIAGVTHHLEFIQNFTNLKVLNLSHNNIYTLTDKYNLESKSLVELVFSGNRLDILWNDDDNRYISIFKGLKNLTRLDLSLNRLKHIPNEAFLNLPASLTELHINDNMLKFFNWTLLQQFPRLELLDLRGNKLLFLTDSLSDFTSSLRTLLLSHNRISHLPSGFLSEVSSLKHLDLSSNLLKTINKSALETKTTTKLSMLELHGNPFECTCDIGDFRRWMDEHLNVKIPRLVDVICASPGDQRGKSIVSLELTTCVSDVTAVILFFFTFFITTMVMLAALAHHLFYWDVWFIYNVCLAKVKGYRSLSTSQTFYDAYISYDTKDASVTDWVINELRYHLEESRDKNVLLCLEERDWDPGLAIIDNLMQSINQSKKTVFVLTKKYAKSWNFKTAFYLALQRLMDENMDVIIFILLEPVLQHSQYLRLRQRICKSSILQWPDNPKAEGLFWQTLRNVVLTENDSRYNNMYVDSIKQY
Procedure, shortened: as §1

human TLR9 = biological target: T3, human TLR9 (Homo sapiens, UniProt Q9NR96); assay: TLR9 inhibition reporter assay (HEK-Blue cells, SEAP reporter, ODN2006 stimulation); details: HEK-Blue cells overexpressing human TLR9, SEAP reporter, ODN2006 5 nM
T3 construct: host or cells: HEK-Blue cells
T3 sequence (Q9NR96 26-1032): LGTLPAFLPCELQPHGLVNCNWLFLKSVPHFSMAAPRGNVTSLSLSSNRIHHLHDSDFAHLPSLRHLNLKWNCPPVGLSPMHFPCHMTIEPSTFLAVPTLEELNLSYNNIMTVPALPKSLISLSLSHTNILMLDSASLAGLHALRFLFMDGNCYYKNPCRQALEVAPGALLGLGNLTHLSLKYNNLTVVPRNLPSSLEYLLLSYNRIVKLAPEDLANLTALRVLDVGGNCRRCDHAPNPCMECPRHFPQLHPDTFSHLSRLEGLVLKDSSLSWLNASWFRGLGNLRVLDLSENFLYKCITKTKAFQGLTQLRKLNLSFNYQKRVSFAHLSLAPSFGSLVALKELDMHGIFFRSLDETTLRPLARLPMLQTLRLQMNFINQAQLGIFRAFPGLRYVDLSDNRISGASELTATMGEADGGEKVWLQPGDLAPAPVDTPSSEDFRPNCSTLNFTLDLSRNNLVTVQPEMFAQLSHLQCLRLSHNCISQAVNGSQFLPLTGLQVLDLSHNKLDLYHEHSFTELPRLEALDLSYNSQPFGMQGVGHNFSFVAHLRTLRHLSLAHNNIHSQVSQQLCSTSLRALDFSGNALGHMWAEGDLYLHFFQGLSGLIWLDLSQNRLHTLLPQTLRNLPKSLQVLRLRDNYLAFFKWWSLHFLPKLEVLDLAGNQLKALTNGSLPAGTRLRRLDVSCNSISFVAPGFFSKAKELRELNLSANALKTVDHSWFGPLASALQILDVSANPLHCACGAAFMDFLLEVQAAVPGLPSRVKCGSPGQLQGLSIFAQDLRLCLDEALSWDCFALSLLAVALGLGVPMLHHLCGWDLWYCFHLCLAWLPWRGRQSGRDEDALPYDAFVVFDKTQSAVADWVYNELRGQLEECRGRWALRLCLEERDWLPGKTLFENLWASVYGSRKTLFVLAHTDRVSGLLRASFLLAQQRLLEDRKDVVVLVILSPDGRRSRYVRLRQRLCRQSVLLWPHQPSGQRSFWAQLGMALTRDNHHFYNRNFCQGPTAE
Procedure, shortened: as §1

SMILES: COC1CN(C2CCC(c3nc4c(C(C)C)c(-c5cn6ncnc6cc5C)[nH]c4s3)CC2)C1 (single isomer, unassigned) [Example 150, 6-isopropyl-2-(4-(3-methoxyazetidin-1-yl)cyclohexyl)-5-(7-methyl-[1,2,4]triazolo[1,5-a]pyridin-6-yl)-4H-pyrrolo[3,2-d]thiazole]
IC50 (human TLR7): 0.57 nM
IC50 (human TLR8): 0.39 nM
IC50 (human TLR9): 2830 nM

SMILES: COC1CN(C2CCC(c3nc4c(C(C)C)c(-c5cn6ncnc6cc5C)[nH]c4s3)CC2)C1 (single isomer, unassigned) [Example 151, 6-isopropyl-2-(4-(3-methoxyazetidin-1-yl)cyclohexyl)-5-(7-methyl-[1,2,4]triazolo[1,5-a]pyridin-6-yl)-4H-pyrrolo[3,2-d]thiazole]
IC50 (human TLR7): 49.2 nM
IC50 (human TLR8): 60 nM
IC50 (human TLR9): 23400 nM

SMILES: Cc1cc2ncnn2cc1-c1[nH]c2sc(C3CCC(NC4COC4)CC3)nc2c1C(C)C (single isomer, unassigned) [Example 152, N-(4-(6-isopropyl-5-(7-methyl-[1,2,4]triazolo[1,5-a]pyridin-6-yl)-4H-pyrrolo[3,2-d]thiazol-2-yl)cyclohexyl)oxetan-3-amine]
IC50 (human TLR7): 13.7 nM
IC50 (human TLR8): 31.6 nM
IC50 (human TLR9): 20900 nM

SMILES: Cc1cc2ncnn2cc1-c1[nH]c2sc(C3CCC(NCC(C)(C)O)CC3)nc2c1C(C)C (single isomer, unassigned) [Example 157, 1-((4-(6-isopropyl-5-(7-methyl-[1,2,4]triazolo[1,5-a]pyridin-6-yl)-4H-pyrrolo[3,2-d]thiazol-2-yl)cyclohexyl)amino)-2-methylpropan-2-ol]
IC50 (human TLR7): 37.4 nM
IC50 (human TLR8): 11.9 nM
IC50 (human TLR9): 16400 nM

SMILES: Cc1cc2ncnn2cc1-c1[nH]c2sc(C3CCC(N(C)C(C)C)CC3)nc2c1C(C)C (single isomer, unassigned) [Example 158, N-isopropyl-4-(6-isopropyl-5-(7-methyl-[1,2,4]triazolo[1,5-a]pyridin-6-yl)-4H-pyrrolo[3,2-d]thiazol-2-yl)-N-methylcyclohexan-1-amine]
IC50 (human TLR7): 8.95 nM
IC50 (human TLR8): 31 nM
IC50 (human TLR9): 14300 nM

The next lines start with the values.

IC50 (human TLR7): 27.8 nM
IC50 (human TLR8): 6.62 nM
IC50 (human TLR9): 22300 nM
SMILES: Cc1cc2ncnn2cc1-c1[nH]c2sc(C3CCC(NC4COC4)CC3)nc2c1C(C)C (single isomer, unassigned) [Example 153, N-(4-(6-isopropyl-5-(7-methyl-[1,2,4]triazolo[1,5-a]pyridin-6-yl)-4H-pyrrolo[3,2-d]thiazol-2-yl)cyclohexyl)oxetan-3-amine]

IC50 (human TLR7): 11.9 nM
IC50 (human TLR8): 3.33 nM
IC50 (human TLR9): 9310 nM
SMILES: Cc1cc2ncnn2cc1-c1[nH]c2sc(C3CCC(N4CCCC4)CC3)nc2c1C(C)C (single isomer, unassigned) [Example 154, 6-isopropyl-5-(7-methyl-[1,2,4]triazolo[1,5-a]pyridin-6-yl)-2-(4-(pyrrolidin-1-yl)cyclohexyl)-4H-pyrrolo[3,2-d]thiazole]

IC50 (human TLR7): 41.5 nM
IC50 (human TLR8): 21.5 nM
IC50 (human TLR9): > 50000 nM
SMILES: Cc1cc2ncnn2cc1-c1[nH]c2sc(C3CCC(N4CCCC4)CC3)nc2c1C(C)C (single isomer, unassigned) [Example 155, 6-isopropyl-5-(7-methyl-[1,2,4]triazolo[1,5-a]pyridin-6-yl)-2-(4-(pyrrolidin-1-yl)cyclohexyl)-4H-pyrrolo[3,2-d]thiazole]

IC50 (human TLR7): 1.72 nM
IC50 (human TLR8): 0.09 nM
IC50 (human TLR9): 10900 nM
SMILES: Cc1cc2ncnn2cc1-c1[nH]c2sc(C3CCC(NCC(C)(C)O)CC3)nc2c1C(C)C (single isomer, unassigned) [Example 156, 1-((4-(6-isopropyl-5-(7-methyl-[1,2,4]triazolo[1,5-a]pyridin-6-yl)-4H-pyrrolo[3,2-d]thiazol-2-yl)cyclohexyl)amino)-2-methylpropan-2-ol]

IC50 (human TLR7): 8.79 nM
IC50 (human TLR8): 4.78 nM
IC50 (human TLR9): 6870 nM
SMILES: Cc1cc2ncnn2cc1-c1[nH]c2sc(C3CCC(N(C)C(C)C)CC3)nc2c1C(C)C (single isomer, unassigned) [Example 159, N-isopropyl-4-(6-isopropyl-5-(7-methyl-[1,2,4]triazolo[1,5-a]pyridin-6-yl)-4H-pyrrolo[3,2-d]thiazol-2-yl)-N-methylcyclohexan-1-amine]

IC50 (human TLR7): 0.61 nM
IC50 (human TLR8): 0.06 nM
IC50 (human TLR9): 5300 nM
SMILES: Cc1cc2ncnn2cc1-c1[nH]c2sc(C3CCC(NC4CCOCC4)CC3)nc2c1C(C)C (single isomer, unassigned) [Example 160, N-(4-(6-isopropyl-5-(7-methyl-[1,2,4]triazolo[1,5-a]pyridin-6-yl)-4H-pyrrolo[3,2-d]thiazol-2-yl)cyclohexyl) tetrahydro-2H-pyran-4-amine]

IC50 (human TLR7): 18.1 nM
IC50 (human TLR8): 14.7 nM
IC50 (human TLR9): 17000 nM
SMILES: Cc1cc2ncnn2cc1-c1[nH]c2sc(C3CCC(NC4CCOCC4)CC3)nc2c1C(C)C (single isomer, unassigned) [Example 161, N-(4-(6-isopropyl-5-(7-methyl-[1,2,4]triazolo[1,5-a]pyridin-6-yl)-4H-pyrrolo[3,2-d]thiazol-2-yl)cyclohexyl) tetrahydro-2H-pyran-4-amine]

Reference: patent US20230139171A1 (SITA Information Networking Computing UK Limited, priority 2019, published 2023)
